Patent publication US20040034067A1, “Novel method of treatment” (priority 1999, published 2004)

Columns and labels:
Assay type in all cases: cell-based
[1] = test system: Gelatinase B mRNA; assay: Gelatinase B mRNA expression in attached human neutrophils; settings: 1 μM of compound; 4 hours after neutrophil attachment; human neutrophils (FIG. 1B)
Method: (FIG. 1B): That the increase in Gelatinase B mRNA expression observed 4 hours after neutrophil attachment was reduced by treatment with 1 μM of Compound (I). Time zero (T0) refers to expression in naive human neutrophils prior to attachment.

[2] = test system: MMP-9 release; assay: Inhibition of MMP-9 release from human neutrophils (human MMP-9 ELISA); settings: Neutrophil, RPMI 1640 plus 1% BSA, 4 hours, 4 individuals, 4-parameter logistic curve fit
Method: FIG. 2: Inhibition of MMP-9 release.by Compound (I)
Neutrophils were isolated by countercurrent centrifugal elutriation to a purity of at least 98% and were maintained in RPMI 1640 plus 1% BSA. Cells were cultured in 48 well plates and attached to the wells within 1 hour of plating. Compound (I) (referred to as“BRL49653” in FIG. 2) was included from the beginning of the experiment. After 4 hours the media was removed and a human MMP-9 ELISA assay (Amersham) was performed. Data (from 4 different individuals) were not suitable for pooling directly, so for the purposes of the figure they were normalised to percentage of no compound control. Asterisks denote p<0.05 using a paired Student's t-test performed on the raw data prior to normalisation.

[3] = test system: PPARgamma mRNA; assay: PPARgamma mRNA expression during human neutrophil attachment to culture dishes; settings: data taken at 1 and 4 hours; human neutrophils (FIG. 1A)

Row | IC50 [2] [nM] | Molecule | increase in Gelatinase B mRNA expression after neutrophil attachment [1] | PPARgamma mRNA during human neutrophil attachment [3]
1 | 10.6 | CN(CCOc1ccc(CC2SC(=O)NC2=O)cc1)c1ccccn1 (stereo not drawn) [Compound (I), 5-[4-[2-(N-methyl-N-(2-pyridyl)amino)ethoxy]benzyl]thiazolidine-2,4-dione] | reduced | –
2 | – | GM-CSF: GM-CSF, treatment that further enhanced PPARgamma mRNA in attached human neutrophils | – | further enhanced
